Reference: US8193171B2, “13,13-dimethyl-des-C,D analogs of 1α,25-dihydroxy-19-nor-vitamin D3 compounds and topical composition dosage forms and methods of treating skin conditions thereof” (Wisconsin Alumni Research Foundation, priority 2008, dated 2012)
Blank lines part the entries; values can stand above or below the compound they belong to.

Tests used:
[1] = target: T1, Full-length recombinant rat receptor (vitamin D receptor, VDR) (Rattus norvegicus, UniProt P13053); experiment: Competitive vitamin D receptor binding; conditions: relative to 1.25(OH)2D3; radioligand 3H-1.25(OH)2D3 1 nM
T1 construct: Full-length recombinant rat receptor was expressed in E. coli; histidine tag (C); made in house; host or cells: E. coli BL21(DE3) Codon Plus RIL
T1 sequence (P13053 1-423): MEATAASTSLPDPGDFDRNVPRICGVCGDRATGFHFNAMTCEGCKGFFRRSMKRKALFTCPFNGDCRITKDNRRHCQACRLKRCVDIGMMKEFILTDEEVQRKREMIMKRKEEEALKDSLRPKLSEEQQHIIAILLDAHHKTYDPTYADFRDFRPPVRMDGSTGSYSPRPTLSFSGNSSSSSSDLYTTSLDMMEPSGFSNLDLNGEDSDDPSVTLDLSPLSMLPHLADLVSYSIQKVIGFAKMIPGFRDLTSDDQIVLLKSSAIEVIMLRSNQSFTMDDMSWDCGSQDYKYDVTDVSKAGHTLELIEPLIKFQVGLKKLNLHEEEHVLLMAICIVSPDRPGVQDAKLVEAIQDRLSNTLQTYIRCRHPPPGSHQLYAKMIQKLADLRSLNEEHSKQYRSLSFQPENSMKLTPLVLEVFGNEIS
Description: Experimental Methods. […] The first system was a nickel affinity resin that utilizes the C-terminal histidine tag on this protein. The protein that was eluted from this resin was further purified using ion exchange chromatography (S-Sepharose Fast Flow). Aliquots of the purified protein were quick frozen in liquid nitrogen and stored at −80° C. until use. For use in binding assays, the protein was diluted in TEDK50 (50 mM Tris, 1.5 mM EDTA, pH 7.4, 5 mM DTT, 150 mM KCl) with 0.1% Chaps detergent. The receptor protein and ligand concentration was optimized such that no more than 20% of the added radiolabeled ligand was bound to the receptor.
Assay Conditions. […] The hydroxylapaptite was collected by centrifugation and then washed three times with Tris-EDTA buffer (50 mM Tris, 1.5 mM EDTA, pH 7.4) containing 0.5% Titron X-100. After the final wash, the pellets were transferred to scintillation vials containing 4 ml of Biosafe II scintillation cocktail, mixed and placed in a scintillation counter. Total binding was determined from the tubes containing only radiolabeled ligand.

[2] = tested on: Human promyelocytic leukemia (HL-60) cells; experiment: HL-60 cell differentiation (nitro blue tetrazolium reduction); format: cell-based; conditions: four days of treatment
Description: HL-60 Differentiation. Test Material. Study Drugs. The study drugs were dissolved in ethanol and the concentrations determined using UV spectrophotometry. Serial dilutions were prepared so that a range of drug concentrations could be tested without changing the final concentration of ethanol (<0.2%) present in the cell cultures.
Cells. Human promyelocytic leukemia (HL-60) cells were grown in RPMI-1640 medium containing 10% fetal bovine serum. The cells were incubated at 37° C. in the presence of 5% CO2.
Assay Conditions. HL-60 cells were plated at 1.2×10^5 cells/ml. Eighteen hours after plating, cells in duplicate were treated with drug. Four days later, the cells were harvested and a nitro blue tetrazolium reduction assay was performed. (Collins et al., 1979, J. Exp. Med. 149:969-974). The percentage of differentiated cells was determined by counting a total of 200 cells and recording the number that contained intracellular black-blue formazan deposits. Verification of differentiation to monocytic cells was determined by measuring phagocytic activity (data not shown).

[3] = tested on: 24-hydroxylase (24OHase) gene promoter; experiment: In vitro 24-OHase transcription assay (luciferase reporter in ROS 17/2.8 bone cells); format: cell-based; conditions: ROS 17/2.8 cells, sixteen hours after dosing
Description: In vitro Transcription Assay. Transcription activity was measured in ROS 17/2.8 (bone) cells that were stably transfected with a 24-hydroxylase (24OHase) gene promoter upstream of a luciferase reporter gene. (Arbour et al., 1998). Cells were given a range of doses. Sixteen hours after dosing the cells were harvested and luciferase activities were measured using a luminometer. RLU=relative luciferase units.

[4] = tested on: intestinal calcium transport; experiment: Intestinal calcium transport (everted gut sac method); format: in vivo, rat; conditions: Sprague-Dawley rats, four consecutive intraperitoneal doses
Description: (§1) Intestinal Calcium Transport and Bone Calcium Mobilization Activity. Male, weanling Sprague-Dawley rats were placed on Diet 11 (0.47% Ca) diet+AEK oil for one week followed by Diet 11 (0.02% Ca)+AEK oil for 3 weeks. The rats were then switched to a diet containing 0.47% Ca for one week followed by two weeks on a diet containing 0.02% Ca. Dose administration began during the last week on 0.02% calcium diet. Four consecutive intraperitoneal doses were given approximately 24 hours apart. Twenty-four hours after the last dose, blood was collected from the severed neck and the concentration of serum calcium determined as a measure of bone calcium mobilization. The first 10 cm of the intestine was also collected for intestinal calcium transport analysis using the everted gut sac method.

[5] = tested on: bone calcium mobilization; experiment: Bone calcium mobilization (serum calcium); format: in vivo, rat; conditions: Sprague-Dawley rats, four consecutive intraperitoneal doses
Description: as §1

Rhino mouse comedones = experiment: Comedolytic effect of daily topical application in the Rhino mouse; format: in vivo; conditions: for Comedone Area (% Vehicle): Rhino mouse, topical daily ca. 3 weeks, 70 vol % ethanol / 30 vol % propylene glycol, mean ± SEM, N 6
From the text: Rhino mice were used to topically test the compounds and compositions of the invention. The Rhino mouse is a well-established animal model used to study the comedolytic effects of anti-acne agents including retinoids. (See Boulcier M et al., 1990, Experimental Models in Skin Pharmacology, In Pharmacological Reviews 42:127-154). The Rhino mouse model was used to study the therapeutic potential of 13Me2.
Animals and dose administration. Rhino mice were enrolled in the study at 6-8 weeks of age and were dosed daily via the topical route. The mice were weighed three times per week and doses were adjusted weekly based on body weight. The topical formulations were applied to the back of the animal in a maximum volume of 100 μL. The topical formulations were made by mixing the 13Me2 with a topical carrier comprising 70 vol % ethanol and 30 vol % propylene glycol, as indicated. The topical vehicle control was the vehicle carrier solution matched to the formulation containing API and vehicle carrier. Mice were sacrificed 72 hours after the final topical dose. At sacrifice, the dorsal skin was collected for histology studies.
Comedolytic effect. The extent of the comedolytic effect (i.e., efficacy) was assessed by measuring the average area of the comedones, whereby the smaller the area, the larger the effect. The comedone area was determined by histological analysis of tissue sections based upon lab methods. Skin was fixed overnight in 4% paraformaldehyde at 4° C. with gentle agitation, and dehydrated the next day into 100% methanol.
Samples were embedded in paraffin and a total of nine 10μ sections 150μ apart were prepared from each Rhino mouse. Five of the nine sections were digitally imaged (6× magnification) for comedone analysis using Metamorph Imaging Software (trace function). The perimeter of each comedone on the images taken from the 5 sections was then traced using a Wacom Intuos 3 Graphics Tablet interfaced with the software.
The number of pixels comprising the area of each individual comedone was obtained, and the mean number of pixels per comedone was obtained for each Rhino mouse. For comedones that were completely healed (area=0) a pixel value approaching 0 (<10) was scored. The individual comedone area average for each mouse was then used to calculate the treatment group mean. Results in the figures are expressed in terms of mean±standard error of the mean.
Preparation of topical formulations containing 13Me2. A concentrated ethanolic stock of 13Me2 was diluted to a final concentration containing 30 vol % propylene glycol and 70 vol % ethanol as the excipient carrier system. The mixture was thoroughly mixed. The topical dosing formulation delivered a predetermined dosing amount of drug on a per kilogram body weight basis. […]

VDR binding affinity compared to the native hormone [1]: one log less affinity
Structure (SMILES): C=C1[C@H](O)CC(=C/C=C/CC(C)(C)C[C@@H](C)CCCC(C)(C)O)C[C@H]1O [13Me2, (1R,3R)-5-[(E)-(S)-11′-hydroxy-5′,5′,7′,11′-tetramethyl-dodec-2′-enylidene]-2-methylene-cyclohexane-1,3-diol]
HL-60 differentiation activity relative to 1.25(OH)2D3 [2]: lower than 1.25(OH)2D3 by approximately one log
24-OHase transcription activity relative to 1.25(OH)2D3 [3]: lower than 1.25(OH)2D3 by approximately one log
Activity on intestinal calcium transport [4]: insignificant activity
Activity on bone calcium mobilization [5]: insignificant activity
Comedone area relative to the vehicle-treated group (FIG. 6) (Rhino mouse comedones; Rhino mice, topical 217 nmole/kgBW/day, 3 weeks daily): significant reduction in comedone area
Comedone area relative to the vehicle-treated group (FIG. 7) (Rhino mouse comedones; Rhino mice, topical 69 and 217 nmole/kgBW/day, 3 weeks daily): dose-dependent reduction in comedone area
Comedone Area (% Vehicle) (Rhino mouse comedones; dose 217 nmol/kg): 26 ± 3 % Vehicle

Structure (SMILES): C=C1/C(=C\C=C2/CCC[C@]3(C)[C@@H]([C@H](C)CCCC(C)(C)O)CC[C@@H]23)C[C@@H](O)C[C@@H]1O [1,25(OH)2D3, 1,25-DIHYDROXYVITAMIN D3, reference compound]
Comedone Area (% Vehicle) (Rhino mouse comedones; dose 6.0 nmol/kg): 187 ± 30 % Vehicle
